According to PubChem BioAssay (NCI):
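96-well plates; 48 h exposure; 5 concentrations. Endpoints by linear interpolation between flanking doses. Not reached: highest tested concentration assigned. Definition used: TGI = concentration required for complete inhibition of growth.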

Assays:
Experiment in all cases: NCI-60 cell line screen, 48 h
TK-10 renal = test system: TK-10 renal
HS 578T breast = test system: HS 578T breast
DU-145 prostate = test system: DU-145 prostate
HCT-15 colon = test system: HCT-15 colon
CAKI-1 renal = test system: CAKI-1 renal
HCT-116 colon = test system: HCT-116 colon
K-562 leukemia = test system: K-562 leukemia
HOP-92 NSCLC = test system: HOP-92 NSCLC
UACC-62 melanoma = test system: UACC-62 melanoma
MCF7 breast = test system: MCF7 breast
SN12C renal = test system: SN12C renal
A549 NSCLC = test system: A549 NSCLC
A498 renal = test system: A498 renal

Row | SMILES | TGI (TK-10 renal) | TGI (HS 578T breast) | TGI (DU-145 prostate) | TGI (HCT-15 colon) | TGI (CAKI-1 renal) | TGI (HCT-116 colon) | TGI (K-562 leukemia) | TGI (HOP-92 NSCLC) | TGI (UACC-62 melanoma) | TGI (MCF7 breast) | TGI (SN12C renal) | TGI (A549 NSCLC) | TGI (A498 renal)
1 | O=C(N/N=C\c1ccc([N+](=O)[O-])cc1)Nc1ccc2ccccc2c1 | 91.3 µM | 70.6 µM | > 100 µM | > 100 µM | > 100 µM | 63.3 µM | > 100 µM | 54.4 µM | > 100 µM | > 100 µM | > 100 µM | > 100 µM | 56.8 µM
2 | CCSc1c2cc(OC)ccc2nc2ccc(OC)cc12 | > 43.7 µM | > 100 µM | > 72.5 µM | > 100 µM | 45.4 µM | > 47.8 µM | > 44.1 µM | > 100 µM | 47.8 µM | > 100 µM | 50.9 µM | > 100 µM | 30 µM
3 | COc1ccc(-c2c(C#N)c(N)nc(Sc3ccccc3N)c2C#N)cc1 | 46 µM | 45.3 µM | > 100 µM | > 100 µM | > 65.9 µM | > 100 µM | > 100 µM | 27.2 µM | > 44.5 µM | > 65.7 µM | > 100 µM | > 100 µM | 19.6 µM
4 | Cc1cc(NS(=O)(=O)c2ccc(NC(=O)c3ccc4nc5ccccc5c(Nc5ccc(S(N)(=O)=O)cc5)c4c3)cc2)no1 | 82.9 µM | 86.8 µM | > 100 µM | 41.3 µM | > 100 µM | 63.2 µM | 44.6 µM | 78.3 µM | 67.7 µM | 37.1 µM | 81.5 µM | 66.3 µM | > 100 µM
5 | CSc1cc(Cl)c(C(=O)Nc2ccccc2)cc1S(=O)(=O)n1cc[nH]c1=O | > 100 µM | > 100 µM | > 100 µM | > 100 µM | > 100 µM | > 100 µM | > 100 µM | > 100 µM | > 100 µM | > 100 µM | > 100 µM | > 100 µM | > 100 µM
6 | c1ccc2c(c1)n1c(N3CCCC3)[n+]3ccccc3c1c1c3cccc[n+]3c(N3CCCC3)n21 | > 100 µM | > 100 µM | > 100 µM | > 100 µM | > 100 µM | > 100 µM | > 100 µM | > 100 µM | > 100 µM | > 100 µM | > 100 µM | > 100 µM | > 100 µM
7 | C=C(Cl)C(Cl)(CBr)CCCC(C)C (configuration not stated) | 32.4 µM | 26.9 µM | 23.7 µM | > 85.4 µM | 12.1 µM | 24 µM | > 100 µM | 31.7 µM | > 100 µM | 28.5 µM | > 100 µM | 54.8 µM | 34 µM
8 | COc1cccc(-c2nc(N)c(C#N)c3c2CCS(=O)(=O)c2ccc(C)cc2-3)c1 | > 100 µM | 48 µM | > 100 µM | > 100 µM | > 100 µM | > 100 µM | 11 µM | > 100 µM | > 100 µM | > 100 µM | > 100 µM | > 100 µM | > 81.8 µM
9 | c1ccc([P+](Cc2ccc(C[P+](c3ccccc3)(c3ccccc3)c3ccccc3)s2)(c2ccccc2)c2ccccc2)cc1 | > 100 µM | > 100 µM | > 100 µM | > 100 µM | > 100 µM | > 100 µM | > 100 µM | > 100 µM | > 100 µM | > 100 µM | > 100 µM | > 100 µM | > 100 µM
10 | CCc1cn(C2CC(CO)C(CO)S2)c(=O)[nH]c1=O (configuration not stated) | > 100 µM | > 100 µM | > 100 µM | > 100 µM | > 100 µM | > 100 µM | > 100 µM | > 100 µM | > 100 µM | > 100 µM | > 100 µM | > 100 µM | > 100 µM
11 | CC1=NN(c2nc(N)nc(CCl)n2)C(C)(C)C1 | > 100 µM | > 100 µM | > 100 µM | 55.9 µM | 9.27 µM | > 70.1 µM | > 69.5 µM | 45.7 µM | 32.5 µM | > 100 µM | > 68.7 µM | > 100 µM | > 84.4 µM
12 | c1ccc(CSCCC(SCc2ccccc2)SCc2ccccc2)cc1 | > 10 µM | > 10 µM | > 10 µM | > 10 µM | > 10 µM | > 10 µM | > 10 µM | > 10 µM | > 10 µM | > 10 µM | > 10 µM | > 10 µM | > 10 µM
13 | CC1=NN(c2ccccc2Cl)C2(C1)C(Cl)C(=O)N2c1nc2ccccc2s1 (configuration not stated) | > 100 µM | > 100 µM | > 100 µM | > 100 µM | > 100 µM | > 100 µM | > 100 µM | > 100 µM | > 100 µM | > 100 µM | > 100 µM | > 100 µM | > 100 µM
14 | CC1(c2cccc(C(F)(F)F)c2)CC(c2cccc(C(F)(F)F)c2)=C(C#N)C(=C(C#N)C#N)N1 (configuration not stated) | 30.8 µM | 43.2 µM | 31 µM | 33.1 µM | 33.3 µM | 29.2 µM | 34.2 µM | 10.6 µM | 31.3 µM | 34.9 µM | 32.8 µM | 39.9 µM | 32.7 µM
